Values quoted from earlier work as cited in patent US10292931B2, “Stable liquid pharmaceutical composition based on trazodone” (AZIENDE CHIMICHE RIUNITE ANGELINI FRANCESCO A.C.R.A.F. …, priority 2007, dated 2019).
Structures can show the parent of a compound that is named as a salt. Where two headings read alike, the source gives them in different places.

Key:
[1] = room temperature
[2] = 1% (w/v) aqueous solution

solubility ([1]; 95% ethanol): 1.6 g/100 ml
solubility ([1]; benzene): practically insoluble
solubility ([1]; chloroform): 3.6 g/100 ml
solubility ([1]; ethyl ether): practically insoluble
solubility ([1]; methanol): 2.5 g/100 ml
solubility ([1]; octanol): less than 0.1 g/100 ml
solubility ([1]; olive oil): less than 0.1 g/100 ml
solubility ([1]; water): 1.8 g/100 ml
pH of aqueous solution [2]: approx. 3.90
SMILES: O=c1n(CCCN2CCN(c3cccc(Cl)c3)CC2)nc2ccccn12 [trazodone hydrochloride]
